Patent US5939583A, “Substituted 4-biphenyl-4-hydroxybutyric acid derivatives as matrix metalloprotease inhibitors” (Bayer Corporation, priority 1997, dated 1999)

Experiments:
[1] = target: T1, Human recombinant gelatinase B (MMP-9) (Homo sapiens, UniProt P14780); format: biochemical; details: P218 6 μM, pH 6.5, 25 min, 37° C.
T1 construct: made in house; host or cells: baculovirus protein expression system
Source text: P218 Fluorogenic Substrate
(§1) MMP Microfluorometric Profiling Assay.

[2] = target: T2, Human Recombinant gelatinase A (MMP-2) (Homo sapiens, UniProt P08253); format: biochemical; details: P218 6 μM, pH 6.5, 25 min, 37° C.
T2 sequence (P08253 110-660): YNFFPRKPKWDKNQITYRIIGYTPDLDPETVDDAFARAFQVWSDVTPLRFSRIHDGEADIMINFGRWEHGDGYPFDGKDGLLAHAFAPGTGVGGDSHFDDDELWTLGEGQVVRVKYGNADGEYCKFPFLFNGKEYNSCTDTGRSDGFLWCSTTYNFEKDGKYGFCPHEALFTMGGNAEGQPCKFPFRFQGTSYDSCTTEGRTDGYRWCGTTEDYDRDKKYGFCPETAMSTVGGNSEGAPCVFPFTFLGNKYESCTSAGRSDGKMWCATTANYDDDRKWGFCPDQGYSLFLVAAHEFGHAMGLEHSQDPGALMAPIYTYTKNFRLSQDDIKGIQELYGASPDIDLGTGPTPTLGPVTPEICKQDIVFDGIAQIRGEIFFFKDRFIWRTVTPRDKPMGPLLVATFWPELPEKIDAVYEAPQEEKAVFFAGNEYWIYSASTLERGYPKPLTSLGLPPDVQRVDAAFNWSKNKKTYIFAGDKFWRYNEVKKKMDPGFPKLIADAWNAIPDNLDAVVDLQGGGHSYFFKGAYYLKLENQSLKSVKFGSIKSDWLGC

[3] = target: T3, Recombinant Human CHO Stromelysin (MMP-3) (Homo sapiens, UniProt P08254); format: biochemical; details: P218 6 μM, pH 6.5, 25 min, 37° C.
T3 construct: made in house; host or cells: CHO
Source text: The reaction was stopped by addition of soybean trypsin inhibitor (SBTI; 5:1 w/w to trypsin concentration).
as §1

[4] = test system: MMP-3; details: WO 9615096 examples; cited from earlier work
[5] = Stability of hydroxy acids as solids and in aged solutions (spontaneous lactonization); format: physicochemical; details: for stability as solids: purified crystalline hydroxy acids
Source text: This was evidenced by the chemical shift of H-4 on the 4S lactone at δ5.40 ppm and that on the 4R lactone at δ5.65 ppm. The hydroxy acid that converted to the 2S, 4R lactone was thus identified as the 2S, 4R hydroxy acid (Example 1) and that which converted to the 2S, 4S lactone was identified as the 2S, 4S hydroxy acid (Example 2).

[6] = test system: human ovarian carcinoma xenografts; details: mice bearing human ovarian carcinoma xenografts; cited from earlier work

T3 sequence (P08254 100-477): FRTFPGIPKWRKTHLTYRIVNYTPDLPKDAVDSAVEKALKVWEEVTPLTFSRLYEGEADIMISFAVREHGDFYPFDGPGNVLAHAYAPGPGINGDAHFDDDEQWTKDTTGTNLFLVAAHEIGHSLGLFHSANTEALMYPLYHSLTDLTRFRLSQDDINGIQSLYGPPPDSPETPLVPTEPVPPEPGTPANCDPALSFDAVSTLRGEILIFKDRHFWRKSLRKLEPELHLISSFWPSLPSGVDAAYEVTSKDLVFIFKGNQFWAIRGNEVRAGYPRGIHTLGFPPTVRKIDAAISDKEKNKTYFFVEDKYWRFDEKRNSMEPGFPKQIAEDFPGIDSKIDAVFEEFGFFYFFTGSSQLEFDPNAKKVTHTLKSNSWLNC
T1 sequence (P14780 107-707 limits assumed): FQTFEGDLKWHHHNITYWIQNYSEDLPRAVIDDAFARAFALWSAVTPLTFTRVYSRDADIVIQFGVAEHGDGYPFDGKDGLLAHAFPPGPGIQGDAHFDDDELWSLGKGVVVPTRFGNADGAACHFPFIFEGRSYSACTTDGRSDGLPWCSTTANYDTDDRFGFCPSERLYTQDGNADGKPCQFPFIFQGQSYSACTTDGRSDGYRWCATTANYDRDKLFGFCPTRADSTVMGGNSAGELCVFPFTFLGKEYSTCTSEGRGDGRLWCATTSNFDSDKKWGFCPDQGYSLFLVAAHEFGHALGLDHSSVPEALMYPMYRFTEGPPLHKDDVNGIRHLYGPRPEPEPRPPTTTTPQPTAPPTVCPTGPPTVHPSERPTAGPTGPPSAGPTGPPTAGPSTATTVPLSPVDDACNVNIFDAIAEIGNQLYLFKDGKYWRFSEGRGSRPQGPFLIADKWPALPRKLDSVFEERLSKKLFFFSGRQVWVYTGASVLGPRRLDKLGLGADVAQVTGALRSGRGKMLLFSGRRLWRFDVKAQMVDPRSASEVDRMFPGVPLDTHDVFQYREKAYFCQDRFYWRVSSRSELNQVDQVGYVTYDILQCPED

O=C(C[C@H](CSc1ccccc1)C(=O)O)c1ccc(-c2ccc(Cl)cc2)cc1
IC50 [1]: 492 nM | IC50 [2]: 20 nM

O=C(C[C@H](CSc1ccc(O)cc1)C(=O)O)c1ccc(-c2ccc(Cl)cc2)cc1
IC50 [3]: 155 nM | IC50 [1]: 115 nM | IC50 [2]: 3 nM

O=C(C[C@H](CCCc1ccccc1)C(=O)O)c1ccc(-c2ccc(Cl)cc2)cc1
IC50 [3]: 108 nM | IC50 [1]: 209 nM | IC50 [2]: 34 nM

CC(C)CC(CC(O)c1ccc(-c2ccc(Cl)cc2)cc1)C(=O)O (single isomer, unassigned) [Example 33]
potency as MMP-3 inhibitors relative to corresponding 4-biphenyl-4-oxobutyric acid derivatives [4]: less potent

CC(C)CC(CC(O)c1ccc(-c2ccc(Cl)cc2)cc1)C(=O)O (single isomer, unassigned) [Example 34]
potency as MMP-3 inhibitors relative to corresponding 4-biphenyl-4-oxobutyric acid derivatives [4]: less potent

O=C(O)[C@@H](CCCc1ccccc1)CC(O)c1ccc(-c2ccc(Cl)cc2)cc1 (single isomer, unassigned) [drawing 38]
IC50 [3]: 50 nM | IC50 [1]: 82 nM | IC50 [2]: 9.4 nM

O=C(O)[C@@H](CCCc1ccccc1)CC(O)c1ccc(-c2ccc(Cl)cc2)cc1 (single isomer, unassigned) [drawing 39]
IC50 [3]: 1200 nM | IC50 [1]: 369 nM | IC50 [2]: 46 nM

O=C(O)[C@@H](CSc1ccccc1)C[C@@H](O)c1ccc(-c2ccc(Cl)cc2)cc1 [Example 1, [2S, 4R]-4-[4-(4-chlorophenyl)phenyl]-4R-hydroxy-2-(phenylthiomethyl)butanoic acid]
spontaneous lactonization in aged solutions [5]: slowly showed one or other of the lactones as a result of spontaneous lactonization | stability as solids [5]: relatively stable as solids

O=C(O)[C@@H](CSc1ccccc1)C[C@H](O)c1ccc(-c2ccc(Cl)cc2)cc1 [Example 2, [2S, 4S]-4-[4-(4-chlorophenyl)phenyl]-4-hydroxy-2-(phenylthiomethyl)butanoic acid]
spontaneous lactonization in aged solutions [5]: slowly showed one or other of the lactones as a result of spontaneous lactonization | stability as solids [5]: relatively stable as solids

CNC(=O)[C@H](Cc1ccccc1)NC(=O)[C@H](CC(C)C)[C@H](CSc1cccs1)C(=O)NO [batimastat]
survival [6]: prolongs the survival

O=C(O)[C@@H](CSc1ccccc1)C[C@@H](O)c1ccc(-c2ccc(Cl)cc2)cc1 [drawing 35]
IC50 [3]: 34 nM | IC50 [1]: 58 nM | IC50 [2]: 2.8 nM

O=C(O)[C@@H](CSc1ccccc1)C[C@H](O)c1ccc(-c2ccc(Cl)cc2)cc1 [drawing 36]
IC50 [3]: 1550 nM | IC50 [1]: 890 nM | IC50 [2]: 62 nM
